Test [1] concerns the target T1, RNase L (Homo sapiens, UniProt Q05823).
T1 construct: made in house; host or cells: Rosetta DE3 E. coli
T1 sequence (Q05823 1-741): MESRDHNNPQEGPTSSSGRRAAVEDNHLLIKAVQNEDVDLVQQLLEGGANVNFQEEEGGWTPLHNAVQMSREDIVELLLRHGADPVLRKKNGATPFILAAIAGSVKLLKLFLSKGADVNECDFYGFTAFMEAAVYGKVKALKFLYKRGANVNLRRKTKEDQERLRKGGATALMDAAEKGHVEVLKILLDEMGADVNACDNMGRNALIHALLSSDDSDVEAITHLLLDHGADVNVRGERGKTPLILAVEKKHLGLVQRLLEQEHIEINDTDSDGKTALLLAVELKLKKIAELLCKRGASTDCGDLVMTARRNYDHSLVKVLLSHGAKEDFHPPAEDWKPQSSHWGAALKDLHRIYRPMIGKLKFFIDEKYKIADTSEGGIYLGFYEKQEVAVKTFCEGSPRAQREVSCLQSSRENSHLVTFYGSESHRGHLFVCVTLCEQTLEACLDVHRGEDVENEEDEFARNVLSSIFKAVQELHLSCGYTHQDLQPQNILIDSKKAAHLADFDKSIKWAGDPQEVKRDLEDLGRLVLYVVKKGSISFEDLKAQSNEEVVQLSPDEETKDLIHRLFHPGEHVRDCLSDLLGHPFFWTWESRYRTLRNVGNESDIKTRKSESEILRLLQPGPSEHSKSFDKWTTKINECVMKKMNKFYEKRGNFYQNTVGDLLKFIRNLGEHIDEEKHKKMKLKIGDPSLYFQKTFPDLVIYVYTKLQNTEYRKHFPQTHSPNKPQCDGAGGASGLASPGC
Description: RNase L dimerization in vitro by Western blotting. Type of test: biochemical. How it is done:
The position within 2 suitable for conjugation was then determined. […] Therefore, this position was derivatized and assessed for RNase L activation. […] A polyethylene glycol (PEG) linker terminated with a t-butyl ester was attached to yield 5 (FIG. 2C).
A general note: Immunoblotting shows a protein as a band on a membrane.

Test [2] concerns the target T1, RNase L. Description: FRET-based in vitro RNA cleavage assay (RNase L activation). The following applies: for Relative RNA Cleavage (cleavage of fluorescently labeled RNA, RNase L activation): dose response, fluorescence normalized to 50 μM of 6. In kind it is biochemical. From the text:
The four compounds with the highest confidence (enrichment scores>300 and copy number>25) were selected for further study. The compounds were re-synthesized without the encoding DNA tag and were studied for RNase L activation using a fluorescence-based in vitro assay, completed as previously described.^16 In brief, the assay uses an dually labeled RNA [5′ fluorescein (6-FAM) and 3′ black hole quencher (BHQ)] that harbors multiple preferred substates for RNase L (FIG. 2A).^16 In the presence of a binder that activates RNase L, the enzyme cleaves the RNA, resulting in an increased fluorescence signal. […] 2 and 3 are similar in structure, differing only by the first building block, phenylglycine in 2 and indoline in 3 (FIG. 2C).
FRET-Based In Vitro RNA Cleavage Assay. Samples were prepared as previously described.^3 Briefly, an RNA construct with multiple preferred RNase L cleavage sites^7 (5′ 6-FAM-[…]-3′ BHQ; 100 nM final concentration) was folded in 1× RNase L Assay Buffer (25 mM Tris-HCl, pH 7.4, and 100 mM NaCl) for 1 min at 95° C. followed by snap cooling on ice for 10 min. Following cooling, β-mercaptoethanol (7 mM), ATP (50 μM), and MgCl2 (1 mM) were added. Compound or DMSO (1%; vehicle) was added to the folded RNA, and the samples were incubated for 15 min. Recombinant GST-RNase L-His was then added to the solution (50 nM final concentration), affording a total volume of 33 μL. Technical triplicates (10 μL) were dispensed into 384-well low volume non-binding plate (Corning 4515), and the samples were incubated in the dark for 1 h. Fluorescence was measured using a Tecan infinite M1000 Pro plate reader using an excitation wavelength of 485 nm, emission wavelength of 520 nm, and gain of 100. Data are reported as “Relative RNA Cleavage”, normalizing fluorescence to the highest level of cleavage observed—upon addition of 50 μM of 6, which was set to 1.

Test [3] relates to phosphorylation of extracellular signal-regulated kinase (ERK). Briefly: Western blot of pERK versus ERK (RTK signaling). Type of test: cell-based. The following applies: Homo sapiens; CRISPR-Control sgRNA MDA-MB-231 cells; read-out: IC50 for inhibition of phosphorylation of ERK. How it is done:
Quantification of Protein Levels by Western Blotting. MDA-MB-231 cells were treated as described in “Cell Culture.” After treatment, the medium was removed, and the cells were washed with 1× Dulbecco's phosphate-buffered saline (DPBS). Total protein was extracted using Mammalian Protein Extraction Reagent (M-PER, Thermo Scientific) according to the manufacturer's protocol. Protein concentration was measured using a Pierce Micro BCA Protein Assay kit (Fisher Scientific). Approximately 20 μg total protein was loaded onto a Tris-glycine gel with a 5% polyacrylamide stacking layer and a 10% polyacrylamide resolving layer. The gel was run at 140 V for ˜1.5 h in 1× Running Buffer (25 mM Tris base, pH 8.3, 190 mM glycine, and 0.1% (w/v) SDS). After electrophoresis, the protein was transferred to a PVDF membrane using 1× Transfer Buffer (25 mM Tris base, pH 8.3, 190 mM glycine, and 20% (v/v) methanol). The membrane was then washed with 1×TBST (Tris-buffered saline with 0.1% (v/v) Tween 20) and blocked in a solution of 5% (w/v) milk in 1×TBST for 30 min with shaking at room temperature. The membrane was then incubated overnight at 4° C. in a solution of primary antibody diluted in 1×TBST containing 5% (w/v) milk. […]

In test [4] the target is T2, pre-miR-21 mutant and RNase L (Homo sapiens, UniProt Q05823, H672N).
T2 construct: GST (N, cleaved yes); made in house; host or cells: BL21 AI Escherichia coli
T2 sequence (Q05823 1-741 H672N): T1 sequence (Q05823 1-741) with H672N
Briefly: Co-immunoprecipitation of mutant pre-miR-21 and RNase L. In kind it is binding. As to conditions: base paired mutant pre-miR-21, inactive RNase L. The protocol: (§1) Co-Immunoprecipitation of pre-miR-2I and RNase L. Approximately 20,000 cpm of 32P 5′-end labeled WT or mutant pre-miR-21 or an RNA construct where the A-bulge was mutated to a base pair (5′-[…] UGGGCUGU-3′) was folded in 1× RNase L Assay Buffer for 1 min at 95° C. and cooled on ice for 10 min. Following cooling, β-mercaptoethanol (7 mM), ATP (50 μM), and MgCl2 (1 mM) were added to the solution. The solution was aliquoted, and compounds were incubated in solution for 15 min (1% DMSO final concentration). […] Beads were then washed with 1×PBS supplemented with 0.02% (v/v) Tween-20. Radioactive signal in the supernatant and associated with the beads was quantified by a Beckman Coulter LS6500 Liquid Scintillation Counter. Relative RNA enrichment was calculated by comparing the radioactive signal associated with beads compared to the total radioactive signal from the beads plus the supernatant.

In another test the target is T3, pre-miR-21 and RNase L (Homo sapiens, UniProt Q05823, H672N).
T3 construct: GST (N, cleaved yes); made in house; host or cells: BL21 AI Escherichia coli
T3 sequence (Q05823 1-741 H672N): T1 sequence (Q05823 1-741) with H672N
Briefly: Co-immunoprecipitation of pre-miR-21 and RNase L. As to conditions: WT 32P-pre-miR-21, inactive RNase L. Type of test: binding. The protocol:
as §1

Test [5] deals with T4, RNase L (Homo sapiens, UniProt Q05823, H672N).
T4 construct: GST (N, cleaved yes); made in house; host or cells: BL21 AI Escherichia coli
T4 sequence (Q05823 1-741 H672N): T1 sequence (Q05823 1-741) with H672N
Description: Circular dichroism (CD) spectroscopy. In kind it is binding. As to conditions: 10 μM inactive RNase L, 75 μM compound. The protocol: (§2) To assess further the ability of this compound to bind to RNase L, saturation transfer difference (STD) nuclear magnetic resonance (NMR)^20 and circular dichroism (CD) spectroscopic studies were conducted with 6, a compound similar in structure to 5 and a potential intermediate in the synthesis of a resulting RiboTAC (FIGS. 2C & 6B-6C).
Circular Dichroism (CD) Spectroscopy. […] CD wavelength scans were completed from 190 to 260 nm. […] The spectra were plotted and compared in GraphPad Prism.
A general note: Circular dichroism is the unequal absorption of left and right circularly polarised light.

In test [6] the target is T4, RNase L. Briefly: Saturation transfer difference (STD) NMR. In kind it is binding. As to conditions: 3 μM protein, 300 μM compound. How it is done:
as §2
(§3) Saturation Transfer Difference (STD) NMR. NMR spectra were acquired at 25° C. on a 600 MHz Bruker Avance III spectrometer equipped with a cryoprobe. Samples were prepared by drying 6 (120 nmol) to a solid and resuspending in deuterated DMSO (4 μL). […] The STD spectra were recorded as an interleaved experiment (n=2) with one experiment including a saturating pulse at −40 ppm for 2 s and one at 0.8 ppm for 2 s. Both spectra were processed with identical phasing before calculating the difference spectra (A) using TopSpin 4.0.6 (Bruker).

A further test relates to lysozyme. Briefly: Saturation transfer difference (STD) NMR, control protein. In kind it is binding. The following applies: 3 μM protein, 300 μM compound. The protocol:
as §2, §3

One may read the pIC50 as the negative decadic logarithm of the IC50, by convention in mol/L.

Residue numbers refer to the chain shown, from its start. pIC50: −log10 of the molar value.

For the molecule `CCCCCCCCc1ccsc1-c1cccc(-c2ccc(CN(C)[C@H](C(=O)NC)c3ccccc3)cc2)c1` [Compound 2, (S)—N-methyl-2-(methyl((3′-(3-octylthiophen-2-yl)-[1,1′-biphenyl]-4-yl)methyl)amino)-2-phenylacetamide], the “RNase L dimerization” value on RNase L [1] is given as “induces RNase L dimerization”. Also, the “Relative RNA Cleavage (cleavage of fluorescently labeled RNA, RNase L activation)” value on RNase L [2] is “induced dose-dependent RNA cleavage to a greater extent than 1”.
With `CNC(=O)[C@H](c1ccccc1)N(C)Cc1ccc(-c2cccc(-c3sccc3N)c2)cc1` [Compound 4, (S)-2-(((3′-(3-aminothiophen-2-yl)-[1,1′-biphenyl]-4-yl)methyl)-(methyl)amino)-N-methyl-2-phenylacetamide], the “Relative RNA Cleavage (cleavage of fluorescently labeled RNA, RNase L activation)” value at RNase L [2] is “enhanced RNA cleavage compared to 2”.
`CN1CCN(c2ccc3nc(-c4c(N)c5c(F)cccc5[nH]c4=O)[nH]c3c2)CC1` [Dovitinib, reference compound]: the pIC50 in test [3] was about 6.00.
For the molecule `CNC(=O)[C@H](c1ccccc1)N(C)Cc1ccc(-c2cccc(-c3sccc3NC(=O)CCOCCOCCOCCC(=O)O)c2)cc1` [Compound 6, (S)-3-(2-(2-(3-((2-(4′-((methyl(2-(methylamino)-2-oxo-1-phenylethyl)amino)methyl)-[1,1′-biphenyl]-3-yl)thiophen-3-yl)amino)-3-oxopropoxy)ethoxy)ethoxy)propanoic acid], the “co-immunoprecipitation of RNA with RNase L” value in test [4] is “Neither RNA was pulled down”; at pre-miR-21 and RNase L, “Neither RNA was pulled down”. Further, on RNase L [5], the “CD signal of RNase L upon addition of compound” value is recorded as “increase in signal intensity at 220 nm”. In addition, the “STD-NMR transfer of magnetization” value is reported as “transfer of magnetization from the compound to RNase L” on RNase L [6] and “no transfer was observed” in the test on lysozyme. In addition, on RNase L [2] (50 μM, highest level of cleavage observed, set to 1), the “Relative RNA Cleavage” value turned out to be 1.
Consider `CNC(=O)[C@H](c1ccccc1)N(C)Cc1ccc(-c2cccc(-c3sccc3NC(=O)CCOCCOCCOCCC(=O)OC(C)(C)C)c2)cc1` [Compound 5, tert-butyl (S)-3-(2-(2-(3-((2-(4′-((methyl(2-(methylamino)-2-oxo-1-phenylethyl)-amino)methyl)-[1,1′-biphenyl]-3-yl)thiophen-3-yl)amino)-3-oxopropoxy)ethoxy)-ethoxy) propanoate], for which the “Relative RNA Cleavage (cleavage of fluorescently labeled RNA, RNase L activation)” value on RNase L [2] was “retained RNase L activation activity”.

The values above are taken from US20260167614A1, “IDENTIFICATION OF SMALL MOLECULES THAT RECRUIT AND ACTIVATE RNASE L” (UNIVERSITY OF FLORIDA RESEARCH FOUNDATION, INCORPORATED, priority 2022, published 2026).
